Assay [1] deals with orexin-1 (Homo sapiens (Human), UniProt O43613). The assay can be described thus: Intracellular calcium measurement (FLIPR), CHO cells expressing human orexin-1 receptor, 3 nM orexin-A. Type of assay: cell-based. Particulars: read-out: IC50 OX1. As for the experimental part: (§1) In Vitro Assay: Intracellular Calcium Measurements:
(§2) Chinese hamster ovary (CHO) cells expressing the human orexin-1 receptor and the human orexin-2 receptor, respectively, are grown in culture medium (Ham F-12 with L-Glutamine) containing 300 μg/mL G418, 100 U/mL penicillin, 100 μg/mL streptomycin and 10% heat inactivated fetal calf serum (FCS). The cells are seeded at 20,000 cells/well into 384-well black clear bottom sterile plates (Greiner). The seeded plates are incubated overnight at 37° C. in 5% CO2.
(§3) Human orexin-A as an agonist is prepared as 1 mM stock solution in MeOH: water (1:1), diluted in HBSS containing 0.1% bovine serum albumin (BSA), NaHCO3: 0.375 g/L and 20 mM HEPES for use in the assay at a final concentration of 3 nM.
(§4) Antagonists are prepared as 10 mM stock solution in DMSO, then diluted in 384-well plates using DMSO followed by a transfer of the dilutions into in HBSS containing 0.1% bovine serum albumin (BSA), NaHCO3: 0.375 g/L and 20 mM HEPES. On the day of the assay, 50 μL of staining buffer (HBSS containing 1% FCS, 20 mM HEPES, NaHCO3: 0.375 g/L, 5 mM probenecid (Sigma) and 3 μM of the fluorescent calcium indicator fluo-4 AM (1 mM stock solution in DMSO, containing 10% pluronic) is added to each well. The 384-well cell-plates are incubated for 50 min at 37° C. in 5% CO2 followed by equilibration at rt for 30 min before measurement.
(§5) Within the Fluorescent Imaging Plate Reader (FLIPR Tetra, Molecular Devices), antagonists are added to the plate in a volume of 10 μL/well, incubated for 120 min and finally 10 μL/well of agonist is added. Fluorescence is measured for each well at 1 second intervals, and the height of each fluorescence peak is compared to the height of the fluorescence peak induced by 3 nM orexin-A with vehicle in place of antagonist. […] Optimized conditions were achieved by adjustment of pipetting speed and cell splitting regime. The calculated IC50 values may fluctuate depending on the daily cellular assay performance. Fluctuations of this kind are known to those skilled in the art.

For assay [2], the target named is human orexin-2 receptor (Homo sapiens (Human), UniProt O43614). The experiment in a line: Intracellular calcium measurement (FLIPR), CHO cells expressing human orexin-2 receptor, 3 nM orexin-A. Type of assay: cell-based. Particulars: read-out: IC50 OX2. The protocol: as §1, §2, §3, §4, §5
[3] abbreviates: CHO cells expressing human orexin-1 receptor, FLIPR, 3 nM orexin-A, geometric mean if determined several times.
Setting [4] is: CHO cells expressing human orexin-2 receptor, FLIPR, 3 nM orexin-A, geometric mean if determined several times.

Read-outs that look alike come from different tables or passages of the source.

Broadly, the IC50 is the midpoint of a concentration-inhibition curve.

Chain of orexin-1 (O43613 whole entry): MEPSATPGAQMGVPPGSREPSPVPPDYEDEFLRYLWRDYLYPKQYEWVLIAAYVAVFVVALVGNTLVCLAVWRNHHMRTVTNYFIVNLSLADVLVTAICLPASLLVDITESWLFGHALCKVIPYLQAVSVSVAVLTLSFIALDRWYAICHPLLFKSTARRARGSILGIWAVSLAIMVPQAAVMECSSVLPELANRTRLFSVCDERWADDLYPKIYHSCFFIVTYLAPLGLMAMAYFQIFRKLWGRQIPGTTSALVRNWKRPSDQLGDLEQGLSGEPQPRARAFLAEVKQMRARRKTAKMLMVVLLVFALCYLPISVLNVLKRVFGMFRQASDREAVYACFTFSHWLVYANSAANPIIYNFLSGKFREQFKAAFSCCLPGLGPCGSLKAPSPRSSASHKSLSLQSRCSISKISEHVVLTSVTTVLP
Chain of human orexin-2 receptor (O43614 whole entry): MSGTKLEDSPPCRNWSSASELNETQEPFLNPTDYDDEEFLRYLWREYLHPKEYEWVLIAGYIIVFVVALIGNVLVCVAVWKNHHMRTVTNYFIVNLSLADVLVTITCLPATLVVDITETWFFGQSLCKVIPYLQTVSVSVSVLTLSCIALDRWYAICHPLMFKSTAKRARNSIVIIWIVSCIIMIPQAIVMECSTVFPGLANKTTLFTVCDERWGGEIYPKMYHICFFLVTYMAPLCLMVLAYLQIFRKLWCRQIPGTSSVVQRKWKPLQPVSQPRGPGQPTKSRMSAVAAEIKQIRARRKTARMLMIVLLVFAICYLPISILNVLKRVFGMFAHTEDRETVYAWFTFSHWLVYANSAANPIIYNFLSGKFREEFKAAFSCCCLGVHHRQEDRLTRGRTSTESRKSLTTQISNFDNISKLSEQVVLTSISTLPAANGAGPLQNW

As to `Cc1ccc(-n2nccn2)c(C(=O)N2CCC[C@H]2c2noc(-c3ccccc3OC(F)(F)F)n2)c1` [Example 303, (5-Methyl-2-[1,2,3]triazol-2-yl-phenyl)-{(S)-2-[5-(2-trifluoromethoxy-phenyl)-[1,2,4]oxadiazol-3-yl]-pyrrolidin-1-yl}-methanone], the IC50 in assay [1] (setting [3]) was found to be 13 nM; in assay [2] (setting [4]) it was 4 nM.
Consider `Cc1cc(-n2nccn2)c(C(=O)N2CCC[C@H]2c2nnc(-c3ccccc3OC(F)(F)F)[nH]2)cc1Cl` [compound 500], for which the IC50 in assay [1] (setting [3]) came to 8 nM; in assay [2] (setting [4]), 2 nM.
Regarding `CCOc1ccccc1-c1noc([C@@H]2CCCN2C(=O)c2cc(F)ccc2-n2nccn2)n1` [compound 263, {(S)-2-[3-(2-Ethoxy-phenyl)-[1,2,4]oxadiazol-5-yl]-pyrrolidin-1-yl}-(5-fluoro-2-[1,2,3]triazol-2-yl-phenyl)-methanone], the values for the IC50 in assay [1] (setting [3]) and in assay [2] (setting [4]) were 505 nM and 105 nM, respectively.
In the same order, the values of `COc1c(Cl)cccc1-c1nc([C@@H]2CCCN2C(=O)c2cc(C)c(C)cc2-n2nccn2)no1` [compound 360] are 7 nM and 1 nM.
For `COc1c(F)cccc1-c1nc([C@@H]2CCCN2C(=O)c2cc(Cl)ccc2-n2nccn2)no1` [compound 343], the half-inhibitory concentration (IC50) was determined as 46 nM in assay [1] (setting [3]) and 3 nM in assay [2] (setting [4]).
In the same order, the values of `COc1ccc(-n2nccn2)c(C(=O)N2CCC[C@H]2c2nc(-c3ccccc3OC(F)(F)F)no2)c1` [compound 151, (5-Methoxy-2-[1,2,3]triazol-2-yl-phenyl)-{(S)-2-[3-(2-trifluoromethoxy-phenyl)-[1,2,4]oxadiazol-5-yl]-pyrrolidin-1-yl}-methanone] are 27 nM and 27 nM.
`O=C(c1ccccc1-n1nccn1)N1CCC[C@H]1c1nc(-c2ccccc2Cl)no1` [compound 243]: the results for the IC50 in assay [1] and in assay [2] were 2680 nM and 312 nM, respectively.
With `Cc1cccc(-n2nccn2)c1C(=O)N1CCC[C@H]1c1nc(-c2ccccc2OC(F)(F)F)no1` [compound 149, (2-Methyl-6-[1,2,3]triazol-2-yl-phenyl)-{(S)-2-[3-(2-trifluoromethoxy-phenyl)-[1,2,4]oxadiazol-5-yl]-pyrrolidin-1-yl}-methanone], the IC50 is 184 nM in assay [1] (setting [3]) and 85 nM in assay [2] (setting [4]).
Take `Cc1cccc(-c2ocnc2C(=O)N2CCC[C@H]2c2nc(-c3cccc(Cl)c3C)no2)c1` [compound 92]: the IC50 amounted to 120 nM in assay [1] (setting [3]) and 53 nM in assay [2] (setting [4]).
For `Cc1c(F)cccc1-c1noc([C@@H]2CCCN2C(=O)c2ccccc2-n2nccn2)n1` [compound 244, {(S)-2-[3-(3-Fluoro-2-methyl-phenyl)-[1,2,4]oxadiazol-5-yl]-pyrrolidin-1-yl}-(2-[1,2,3]triazol-2-yl-phenyl)-methanone], the IC50 turned out to be 306 nM in assay [1] (setting [3]) and 18 nM in assay [2] (setting [4]).
In the same order, the values of `Cc1c(Cl)cccc1-c1noc([C@@H]2CCCN2C(=O)c2ccccc2-c2ccccc2)n1` [compound 268] are 233 nM and 31 nM.
In the case of `Cc1cc(C(=O)N2CCC[C@@]2(C)c2nnc(-c3cccc(Cl)c3C)[nH]2)c(-n2nccn2)cc1C` [compound 553], the IC50 amounted to 14 nM in assay [1] (setting [3]) and 6 nM in assay [2] (setting [4]).
In the same order, the values of `CCOc1ncccc1-c1nc([C@@H]2CCCN2C(=O)c2cc(C)ccc2-n2nccn2)no1` [compound 330, {(S)-2-[5-(2-Ethoxy-pyridin-3-yl)-[1,2,4]oxadiazol-3-yl]-pyrrolidin-1-yl}-(5-methyl-2-[1,2,3]triazol-2-yl-phenyl)-methanone] are 5 nM and 2 nM.
In the same order, the values of `Cc1ccc(-n2nccn2)c(C(=O)N2CCC[C@H]2c2nc(-c3cccc(OC(F)F)c3)no2)c1` [compound 43, {(S)-2-[3-(3-Difluoromethoxy-phenyl)-[1,2,4]oxadiazol-5-yl]-pyrrolidin-1-yl}-(5-methyl-2-[1,2,3]triazol-2-yl-phenyl)-methanone] are 284 nM and 23 nM.
In the same order, the values of `Cc1ccc(-n2nccn2)c(C(=O)N2CCC[C@H]2c2nc(-c3c[nH]c4cccc(C)c34)no2)c1` [compound 79, {(S)-2-[3-(4-Methyl-1H-indol-3-yl)-[1,2,4]oxadiazol-5-yl]-pyrrolidin-1-yl}-(5-methyl-2-[1,2,3]triazol-2-yl-phenyl)-methanone] are 2750 nM and 1070 nM.
On to `CCOc1ncccc1-c1noc([C@@H]2CCCN2C(=O)c2cc(Cl)c(C)cc2-n2nccn2)n1` [compound 301], for which the IC50 was found to be 19 nM in assay [1] (setting [3]) and 6 nM in assay [2] (setting [4]).
In the same order, the values of `COc1c(F)cccc1-c1noc([C@@H]2CCCN2C(=O)c2cc(C)cc(C)c2-n2nccn2)n1` [compound 192, (3,5-Dimethyl-2-[1,2,3]triazol-2-yl-phenyl)-{(S)-2-[3-(3-fluoro-2-methoxy-phenyl)-[1,2,4]oxadiazol-5-yl]-pyrrolidin-1-yl}-methanone] are 135 nM and 15 nM.
On to `CCOc1ccccc1-c1noc([C@@H]2CCCN2C(=O)c2cc(OC)ccc2-n2nccn2)n1` [compound 261, {(S)-2-[3-(2-Ethoxy-phenyl)-[1,2,4]oxadiazol-5-yl]-pyrrolidin-1-yl}-(5-methoxy-2-[1,2,3]triazol-2-yl-phenyl)-methanone], for which the IC50 came to 26 nM in assay [1] (setting [3]) and 9 nM in assay [2] (setting [4]).
In the same order, the values of `O=C(c1cc(F)c(F)cc1-n1nccn1)N1CCC[C@H]1c1nc(-c2ccccc2OC(F)(F)F)no1` [compound 161, (4,5-Difluoro-2-[1,2,3]triazol-2-yl-phenyl)-{(S)-2-[3-(2-trifluoromethoxy-phenyl)-[1,2,4]oxadiazol-5-yl]-pyrrolidin-1-yl}-methanone] are 751 nM and 204 nM.
Take `Cc1ccc(-n2nccn2)c(C(=O)N2CCC[C@H]2c2cc(-c3ccccc3)n[nH]2)c1` [Example 530, (5-Methyl-2-[1,2,3]triazol-2-yl-phenyl)-[(S)-2-(5-phenyl-2H-pyrazol-3-yl)-pyrrolidin-1-yl]-methanone]: the figures for the IC50 in assay [1] (setting [3]) and in assay [2] (setting [4]) were 386 nM and 222 nM, respectively.
As for `COc1ccccc1-c1nnc([C@@H]2CCCN2C(=O)c2ccc(Cl)cc2-n2nccn2)[nH]1` [compound 470], the IC50 was found to be 57 nM in assay [1] (setting [3]) and 31 nM in assay [2].
Take `Cc1c(Cl)cccc1-c1noc([C@@H]2CCCN2C(=O)c2cccnc2-c2ccccn2)n1` [compound 107]: the IC50 is 1040 nM in assay [1] (setting [3]) and 79 nM in assay [2] (setting [4]).
In the same order, the values of `O=C(c1cc(C(F)(F)F)ccc1-n1nccn1)N1CCC[C@H]1c1nc(-c2ccccc2OC(F)(F)F)no1` [compound 148, (2-[1,2,3]Triazol-2-yl-5-trifluoromethyl-phenyl)-{(S)-2-[3-(2-trifluoromethoxy-phenyl)-[1,2,4]oxadiazol-5-yl]-pyrrolidin-1-yl}-methanone] are 241 nM and 285 nM.
For `C[C@@]1(c2nc(-c3ccccc3)no2)CCCN1C(=O)c1ncsc1-c1cccc(Cl)c1` [compound 538], the IC50 in assay [1] (setting [3]) is 941 nM; in assay [2] (setting [4]), 2810 nM.
As for `Cc1c(Cl)cccc1-c1noc([C@@H]2CCCN2C(=O)c2ccccc2-c2ncco2)n1` [compound 120], the IC50 in assay [1] (setting [3]) was 483 nM; in assay [2] it was 37 nM.

Values taken from patent US9493446B2, “Orexin receptor antagonists which are [ortho bi-(hetero-)aryl]-[2-(meta bi-(hetero-)aryl)-pyrrolidin-1-yl]-methanone derivatives” (Actelion Pharmaceuticals Ltd, priority 2012, dated 2016).
